The term IC50 denotes the concentration needed to halve the response being measured.

Consider 2 compounds from US20120093917A1, “METNASE AND INTNASE INHIBITORS AND THEIR USE IN TREATING CANCER” (priority 2009, published 2012).

Some results are limits rather than exact numbers.

Series [1] has as its system cancer cells. Nature of the series: Summary statements: cytotoxicity for cancer cells alone and with chemotherapy. The series is classed as cell-based. To be noted: summary statement referring to figures. Here is the method:
(§1) The human Pancreatic cancer cell line BXPC3 was plated (4000 cells per plate with a ˜10% plating efficiency) in 10 cm dishes, using 10 ml of RPMI media (always with 10% FBS) per plate, and placed in a […] incubator (5% CO2) for 24 hrs. After 24 hrs, each plate was treated with one or a combination of the following agents: DMSO (0.2% in solution), 0.3 μg/ml of gemcitabine (dissolved in 1×PBS), and/or 2 μM of each Metnase/Intnase inhibitor (dissolved in DMSO). When the DMSO, gemcitabine, and/or inhibitors were added, the plates were swirled several times to assure mixing. After the agents were added to the RPMI, the plates were put back into the incubators for 18 hrs. Following 18 hrs treatment, the media was removed and the cells were washed twice with 1×PBS. Ten ml of fresh RPMI with 10% FBS was added and the cells were placed back into the incubator for 14 days. After the incubation period that will allow surviving cells to form colonies, the media was discarded and surviving colonies were stained with methylene blue. Colonies, a reflection of a single surviving cell that expanded, were counted to measure survival. All experiments were run in triplicate. Experiments were normalized to either DMSO (black asterices) or gemcitabine (red asterices).
(§2) The human colon cancer cell line SW48 was plated (1000 cells per plate with a ˜20% plating efficiency) in 10 cm dishes, using 10 ml of DMEM media (always with 10% FBS) per plate, and placed in a […] incubator (5% CO2) for 24 hrs. After 24 hr, each plate was treated with one or a combination of the following agents: DMSO (0.2% in solution), 3 μM 5-fluorouracil (5FU, dissolved in 1×PBS), and/or 2 μM of each Metnase/intnase inhibitor (dissolved in DMSO). When the DMSO, 5FU, and/or inhibitors were added, the plates were swirled several times to assure mixing. After agents were added to the DMEM, the plates were put back into the incubators for 18 hr. Following 18 hr treatment, the media was removed and the cells were washed twice with 1×PBS. Ten milliliters of fresh DMEM was added and the cells were placed back into the incubator for 7-14 days. After the incubation period that will allow surviving cells to grow and form colonies, media was discarded and surviving colonies were stained with methylene blue. Colonies, a reflection of a single surviving cell that expanded, were counted to measure survival. All experiments were run in triplicate. Experiments were normalized to either DMSO (black asterices) or 5FU (red asterices).
(§3) The human myeloid cell line KG-1 was grown in RPMI1640 with 10% FBS. The small cell lung cancer cell line CRL5898 was grown in HITES medium (Dulbecco's medium: Ham's F12, 50:50 mix, Insulin 0.005 mg/ml Transferrin 0.01 mg/ml Sodium selenite 30 nM Hydrocortisone 10 nM beta-estradiol 10 nM HEPES 10 mM L-glutamine 2 mM (in addition to that in the base medium)). Both cell lines were seeded at 10,000 cells/ml in the appropriate medium in 6 well plates. The Chem Div compounds were resuspended as 5 mM stock solutions in DMSO. The Chem Div compounds were added alone at 2 uM and 5 uM or in combination with VP-16 (also called etoposide) at 0.05 uM. DMSO was added to the control wells. Cells were plated and treated in triplicate and counted daily for 4 days.

The test system of series [2] is human Pancreatic cancer cell line BXPC3. Nature of the series: Colony formation assay, pancreatic cancer cell line BXPC3. The series is classed as cell-based. To be noted: BXPC3, FIG. 16; for potentiation of gemcitabine (surviving colonies): 2 μM inhibitor + 0.3 μg/ml gemcitabine, 18 hrs, normalized to gemcitabine; for activity on their own against the pancreatic cancer cells (surviving colonies): 2 μM inhibitor, 18 hrs treatment, colonies after 14 days, normalized to DMSO. On the procedure: as §1

For series [3], the system named is CYP3A. The conditions noted are these: cited from earlier work.
For series [4] the following is noted: in vivo; cited from earlier work.
Series [5] has as its system human colon cancer cell line SW48. Nature of the series: Colony formation assay, colon cancer cell line SW48. The format is cell-based. The conditions noted are these: 2 μM inhibitor, 18 hr treatment, colonies after 7-14 days, normalized to DMSO, FIG. 17. Here is the method: as §2
The target of series [6] is ABCB1 (MDR-1; P-gp) (Homo sapiens, UniProt P08183). To be noted: not told; cited from earlier work.
In series [7] the test system is human DNA polymerases. The conditions noted are these: cited from earlier work.
The subject of series [8] is cytochrome P450 enzymes. To be noted: cited from earlier work.
The target of series [9] is 166 enzymes, transporters and receptors. To be noted: read-out: IC50 in screening panel, all assays; cited from earlier work.
In series [10] the test system is human myeloid cell line KG-1. Nature of the series: Leukemia cell line KG-1 growth curve, alone or with VP-16. The format is cell-based. To be noted: counted daily for 4 days. On the procedure: as §3

Sequence of ABCB1 (MDR-1; P-gp) (P08183 whole entry, species assumed): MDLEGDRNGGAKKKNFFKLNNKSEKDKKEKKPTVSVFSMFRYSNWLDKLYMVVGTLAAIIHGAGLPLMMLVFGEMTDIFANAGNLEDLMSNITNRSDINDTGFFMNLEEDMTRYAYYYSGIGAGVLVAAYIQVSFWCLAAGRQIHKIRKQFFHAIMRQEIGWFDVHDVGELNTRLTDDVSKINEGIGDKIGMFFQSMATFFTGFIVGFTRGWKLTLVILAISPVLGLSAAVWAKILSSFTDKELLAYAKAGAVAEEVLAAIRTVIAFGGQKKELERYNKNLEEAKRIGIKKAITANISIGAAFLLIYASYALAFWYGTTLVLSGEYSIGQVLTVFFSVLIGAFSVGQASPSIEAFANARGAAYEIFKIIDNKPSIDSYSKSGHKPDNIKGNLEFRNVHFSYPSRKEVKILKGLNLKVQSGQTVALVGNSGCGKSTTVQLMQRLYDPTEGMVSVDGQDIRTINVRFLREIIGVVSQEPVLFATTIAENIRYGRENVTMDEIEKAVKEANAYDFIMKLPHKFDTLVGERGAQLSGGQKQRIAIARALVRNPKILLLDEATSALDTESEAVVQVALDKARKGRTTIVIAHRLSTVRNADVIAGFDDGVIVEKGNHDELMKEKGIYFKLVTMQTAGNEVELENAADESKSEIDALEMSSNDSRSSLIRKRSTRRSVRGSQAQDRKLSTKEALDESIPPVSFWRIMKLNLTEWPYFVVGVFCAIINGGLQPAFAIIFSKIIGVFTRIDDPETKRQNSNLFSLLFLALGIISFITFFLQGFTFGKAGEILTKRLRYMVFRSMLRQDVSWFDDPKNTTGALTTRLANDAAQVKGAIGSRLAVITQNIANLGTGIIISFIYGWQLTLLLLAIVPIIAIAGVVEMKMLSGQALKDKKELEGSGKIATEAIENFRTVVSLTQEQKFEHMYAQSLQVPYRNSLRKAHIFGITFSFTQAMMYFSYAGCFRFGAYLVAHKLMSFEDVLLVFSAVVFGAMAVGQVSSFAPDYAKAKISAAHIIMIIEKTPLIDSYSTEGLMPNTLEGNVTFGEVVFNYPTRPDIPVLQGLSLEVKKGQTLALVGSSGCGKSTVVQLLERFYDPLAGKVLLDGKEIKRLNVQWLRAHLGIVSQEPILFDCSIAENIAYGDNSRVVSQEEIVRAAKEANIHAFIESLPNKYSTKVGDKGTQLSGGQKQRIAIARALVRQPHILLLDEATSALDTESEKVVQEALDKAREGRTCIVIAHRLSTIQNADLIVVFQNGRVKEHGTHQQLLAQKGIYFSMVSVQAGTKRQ

In the case of `COc1cc2c(cc1Cc1cccc(Cl)c1F)c(=O)c(C(=O)O)cn2[C@H](CO)C(C)C` [Elvitegravir, 6-[(3-chloro-2-fluorophenyl)methyl]-1-[(2S)-1-hydroxy-3-methylbutan-2-yl]-7-methoxy-4-oxoquinoline-3-carboxylic acid, reference compound], in [1], the “cytotoxicity for cancer cells, compound alone” value is given as “cytotoxic for cancer cells alone”. Further, in [2], the “potentiation of gemcitabine (surviving colonies)” value was “potentiate gemcitabine” and the “activity on their own against the pancreatic cancer cells (surviving colonies)” value is listed as “activity on their own”. Further, in [3], the CYP3A induction entry was “moderate CYP3A inducer”. For the same compound, the Serum half-life in series [4] was 3 h.

Regarding `Cc1nnc(C(=O)NC(C)(C)C2=N/C(=C(\O)NCc3ccc(F)cc3)C(=O)C(=O)N2C)o1` [Raltegravir, N-[2-[(4Z)-4-[[(4-fluorophenyl)methylamino]-hydroxymethylidene]-1-methyl-5,6-dioxopyrimidin-2-yl]propan-2-yl]-5-methyl-1,3,4-oxadiazole-2-carboxamide], in series [5], the “activity on their own against the colon cancer cells (surviving colonies)” value is on record as “activity on their own”. In [6], the “inhibitor of ABCB1 (MDR-1; P-gp)” value is “not an inhibitor”. The “inhibition of human DNA polymerases” value in [7] was “does not inhibit”. Besides, in series [2], the “potentiation of gemcitabine (surviving colonies)” value was “potentiate gemcitabine” and the “activity on their own against the pancreatic cancer cells (surviving colonies)” value is listed as “activity on their own”. The “substrate, inducer or inhibitor of cytochrome P450 enzymes” value in series [8] is recorded as “not a substrate, nor an inducer or inhibitor”. Moreover, the IC50 in [9] is over 10 µM. Besides, in series [4], the Serum half-life is 9 h. Besides, the “effect of compound alone on KG-1 growth, lower/low dose” value in series [10] (lower (low) dose of compound (added at 2 uM and 5 uM)) was “little effect on leukemia cell growth”. Also, the “potentiation of low dose VP-16 on KG-1 growth, lower/low dose of compound” value in [10] (lower (low) dose of compound + VP-16 0.05 uM) is “potentiated the anti-proliferative effect of low dose VP-16”.
